Test results from the NIST ThermoML archive (doi:10.1021/je0500734).
Numbers after ± are expanded uncertainties.

Columns and labels:
[1] = xn = mol fraction of the nth substance listed; settings: 101.33 kPa, Liquid; for speed of sound: acoustic time of flight gauge
[2] = 101.33 kPa, Liquid; for kinematic viscosity: Capillary tube (Ostwald / Ubbelohde) method; for speed of sound: acoustic time of flight gauge

C[N+](=O)[O-] [nitromethane] + [2H]OCCCCC
[1], x1 = 1
Settings | mass density [kg/m3] | viscosity [mPa·s]
301.3 K | 1126.04 ± 1.7 | 0.6074 ± 0.042
306.3 K | 1119.15 ± 1.6 | 0.5623 ± 0.039

[2H]OCCCCC [pentan-1-ol-d]
[2]
Settings | kinematic viscosity [m2/s] | mass density [kg/m3] | speed of sound [m/s] | viscosity [mPa·s]
293.15 K | 4.99e-06 ± 6e-08 | 821.69 ± 1.6 | 1282.3 ± 2 | –
295.15 K | 4.458e-06 ± 3.8e-08 | 819.5 ± 1.6 | 1273.7 ± 2 | –
298.15 K | 4.238e-06 ± 3e-08 | 818.04 ± 1.7 | 1265.1 ± 2 | –
300.15 K | 3.969e-06 ± 3.1e-08 | 816.42 ± 1.7 | 1258.3 ± 2 | –
301.3 K | – | 815.63 ± 2.1 | – | 3.118 ± 0.18
303.15 K | 3.685e-06 ± 2.9e-08 | 814.24 ± 1.7 | 1248.5 ± 2 | –
305.15 K | 3.456e-06 ± 2.9e-08 | 813.1 ± 1.7 | 1241.1 ± 2 | –
306.3 K | – | 811.88 ± 2.2 | – | 2.685 ± 0.16
308.15 K | 3.148e-06 ± 2.7e-08 | 810.47 ± 1.7 | 1230.8 ± 2 | –

[2H]OCCCCC [pentan-1-ol-d] + C[N+](=O)[O-]
[1]
Settings | mass density, 301.3 K [kg/m3] | mass density, 306.3 K [kg/m3] | viscosity, 301.3 K [mPa·s] | viscosity, 306.3 K [mPa·s]
x2 = 0 | 815.63 ± 2.1 | 811.88 ± 2.2 | 3.118 ± 0.18 | 2.685 ± 0.16
x2 = 0.07 | 825.73 ± 2 | 821.85 ± 2.1 | – | –
x2 = 0.106 | – | – | 2.465 ± 0.14 | 2.186 ± 0.13
x2 = 0.154 | 839.37 ± 1.9 | 835.21 ± 2 | – | –
x2 = 0.231 | 852.09 ± 1.8 | 847.81 ± 1.9 | – | –
x2 = 0.245 | – | – | 1.937 ± 0.12 | 1.678 ± 0.1
x2 = 0.298 | 862.5 ± 1.8 | 858.1 ± 1.8 | – | –
x2 = 0.385 | 879.49 ± 1.6 | 873.8 ± 1.7 | – | –
x2 = 0.386 | – | – | 1.497 ± 0.091 | 1.319 ± 0.082
x2 = 0.503 | 906.93 ± 1.4 | 904.01 ± 1.4 | – | –
x2 = 0.508 | – | – | 1.161 ± 0.073 | 1.066 ± 0.067
x2 = 0.551 | 920.64 ± 1.3 | 917.49 ± 1.3 | – | –
x2 = 0.555 | – | – | 1.097 ± 0.069 | 0.9975 ± 0.064
x2 = 0.623 | – | – | 1.004 ± 0.064 | 0.8782 ± 0.057
x2 = 0.651 | 954.06 ± 1 | 950.15 ± 1.1 | – | –
x2 = 0.679 | – | – | 0.9207 ± 0.06 | 0.7937 ± 0.053
x2 = 0.718 | – | – | 0.8419 ± 0.055 | 0.729 ± 0.049
x2 = 0.74 | 989.43 ± 0.74 | 983.56 ± 0.78 | – | –
x2 = 0.749 | – | – | 0.7878 ± 0.052 | 0.6974 ± 0.047
x2 = 0.774 | – | – | 0.7451 ± 0.05 | 0.6734 ± 0.046
x2 = 0.847 | 1037.27 ± 0.95 | 1031.12 ± 0.9 | – | –
x2 = 0.946 | 1090.5 ± 1.4 | 1083.88 ± 1.3 | – | –

CCCCCO [pentan-1-ol]
[2]
Settings | kinematic viscosity [m2/s] | mass density [kg/m3] | speed of sound [m/s] | viscosity [mPa·s]
293.15 K | 4.96e-06 ± 5.9e-08 | 815.09 ± 1.7 | 1290.7 ± 2 | –
295.15 K | 4.444e-06 ± 3.7e-08 | 812.74 ± 1.7 | 1282.1 ± 2 | –
298.15 K | 4.223e-06 ± 3e-08 | 811.4 ± 1.7 | 1273.6 ± 2 | –
300.15 K | 3.942e-06 ± 3.2e-08 | 809.72 ± 1.7 | 1266.7 ± 2 | –
301.15 K | – | 808.96 ± 2.2 | 1263.3 ± 2 | 3.113 ± 0.18
303.15 K | 3.635e-06 ± 2.8e-08 | 807.41 ± 1.7 | 1256.4 ± 2 | –
303.5 K | – | 807.33 ± 2.2 | – | 2.997 ± 0.17
305.15 K | 3.45e-06 ± 2.8e-08 | 805.78 ± 1.7 | 1249.4 ± 2 | –
306.15 K | – | 805.17 ± 2.2 | 1246.2 ± 2 | 2.686 ± 0.16
307.5 K | – | 803.76 ± 2.2 | – | 2.57 ± 0.15
308.15 K | 3.129e-06 ± 2.8e-08 | 803.71 ± 1.8 | 1239.3 ± 2 | –

CCCCCO [pentan-1-ol] + C[N+](=O)[O-]
[1], x2 = 0
Settings | mass density [kg/m3] | speed of sound [m/s] | viscosity [mPa·s]
301.15 K | 808.96 ± 2.2 | 1263.3 ± 2 | 3.113 ± 0.18
306.15 K | 805.17 ± 2.2 | 1246.2 ± 2 | 2.686 ± 0.16

CCCCCO [pentan-1-ol] + [2H]C([2H])([2H])[N+](=O)[O-]
[1], x2 = 0
Settings | mass density [kg/m3] | viscosity [mPa·s]
303.5 K | 807.33 ± 2.2 | 2.997 ± 0.17
307.5 K | 803.76 ± 2.2 | 2.57 ± 0.15
